“Also recorded” adds a separate entry of the source.
Experiments:
h5-HT2B = h5-HT2B (Homo sapiens, UniProt P41595); assay: Ca2+ mobilization assay; format: cell-based; details: for Emax: HEK293, read-out: h5-HT2B Emax
5-HT3 = molecular target: T1, 5-HT3 (Homo sapiens, UniProt P46098); assay: PDSP screening affinity 5-HT3; format: binding
T1 sequence (P46098 24-478): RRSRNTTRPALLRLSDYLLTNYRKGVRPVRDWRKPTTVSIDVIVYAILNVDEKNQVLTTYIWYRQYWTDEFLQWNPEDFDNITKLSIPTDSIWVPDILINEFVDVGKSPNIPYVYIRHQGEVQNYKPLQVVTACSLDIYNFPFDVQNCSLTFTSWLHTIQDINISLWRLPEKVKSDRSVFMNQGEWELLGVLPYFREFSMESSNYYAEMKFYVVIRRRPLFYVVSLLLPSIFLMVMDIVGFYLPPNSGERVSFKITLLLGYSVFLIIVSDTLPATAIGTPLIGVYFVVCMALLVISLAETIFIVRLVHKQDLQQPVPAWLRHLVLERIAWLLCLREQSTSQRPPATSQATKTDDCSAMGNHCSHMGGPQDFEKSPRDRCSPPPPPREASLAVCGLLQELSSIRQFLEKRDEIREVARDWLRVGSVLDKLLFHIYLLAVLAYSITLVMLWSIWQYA

5-HT2A receptor [1] = molecular target: T2, 5-HT2A receptor (Homo sapiens, UniProt P28223); assay: h5-HT2A affinity, antagonist radioligand [3H]ketanserin; format: binding
h5-HT2C = molecular target: T3, h5-HT2C (Homo sapiens, UniProt P28335); assay: Ca2+ mobilization assay; format: cell-based; details: for Emax: HEK293, read-out: h5HT2C Emax; for EC50: h5HT2C EC50, Ca2+ mobilization
T3 sequence (P28335 33-458): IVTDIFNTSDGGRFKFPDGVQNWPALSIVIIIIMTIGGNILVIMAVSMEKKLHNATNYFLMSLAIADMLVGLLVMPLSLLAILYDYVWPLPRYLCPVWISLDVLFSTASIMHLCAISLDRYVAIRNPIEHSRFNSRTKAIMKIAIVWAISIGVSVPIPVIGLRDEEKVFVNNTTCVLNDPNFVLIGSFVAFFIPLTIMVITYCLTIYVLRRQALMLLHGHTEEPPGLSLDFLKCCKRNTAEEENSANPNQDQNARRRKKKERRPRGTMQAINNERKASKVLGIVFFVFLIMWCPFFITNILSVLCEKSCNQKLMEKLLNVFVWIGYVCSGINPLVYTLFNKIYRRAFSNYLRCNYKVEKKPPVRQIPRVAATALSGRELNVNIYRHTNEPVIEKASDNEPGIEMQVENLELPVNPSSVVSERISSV

5-HT1B = 5-HT1B (Homo sapiens, UniProt P28222); assay: PDSP screening affinity 5-HT1B; format: binding; details: 5-HT1B affinity
5-ht5a = 5-ht5a (Homo sapiens, UniProt P47898); assay: PDSP screening affinity 5-ht5a; format: binding; details: 5-ht5a affinity
5-HT2A receptor [2] = molecular target: T2, 5-HT2A receptor; assay: h5-HT2A affinity, agonist radioligand [125I]DOI; format: binding
r5-HT2C = molecular target: T4, r5-HT2C (Rattus norvegicus, UniProt P08909); assay: Ca2+ mobilization assay; format: cell-based; details: for Emax: read-out: r5-HT2C Emax
T4 sequence (P08909 33-460): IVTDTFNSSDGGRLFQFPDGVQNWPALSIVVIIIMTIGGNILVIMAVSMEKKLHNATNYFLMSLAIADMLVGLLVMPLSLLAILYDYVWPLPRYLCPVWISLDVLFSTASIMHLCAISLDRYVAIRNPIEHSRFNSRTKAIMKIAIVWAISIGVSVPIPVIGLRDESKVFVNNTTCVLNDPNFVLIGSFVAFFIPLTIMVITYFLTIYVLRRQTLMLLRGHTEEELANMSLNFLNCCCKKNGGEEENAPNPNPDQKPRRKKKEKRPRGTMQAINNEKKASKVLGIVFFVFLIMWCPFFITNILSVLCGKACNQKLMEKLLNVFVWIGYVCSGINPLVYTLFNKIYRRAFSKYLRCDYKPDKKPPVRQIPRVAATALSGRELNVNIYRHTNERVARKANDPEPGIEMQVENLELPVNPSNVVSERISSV

5-HT6 = 5-HT6 (Homo sapiens, UniProt P50406); assay: PDSP screening affinity 5-HT6; format: binding; details: 5-HT6 affinity
5-HT1D = 5-HT1D (Homo sapiens, UniProt P28221); assay: PDSP screening affinity 5-HT1D; format: binding
5-HT2B = 5-HT2B (Homo sapiens, UniProt P41595); assay: PDSP screening affinity 5-HT2B; format: binding
human 5-HT2C receptor [3] = molecular target: T5, human 5-HT2C receptor (Homo sapiens, UniProt P28335); assay: h5-HT2C affinity, antagonist radioligand [3H]mesulergine; format: binding
T5 sequence (P28335 33-458): T3 sequence (P28335 33-458)

5-HT1A = molecular target: T6, 5-HT1A (Homo sapiens, UniProt P08908); assay: PDSP screening affinity 5-HT1A; format: binding
T6 sequence (P08908 1-422): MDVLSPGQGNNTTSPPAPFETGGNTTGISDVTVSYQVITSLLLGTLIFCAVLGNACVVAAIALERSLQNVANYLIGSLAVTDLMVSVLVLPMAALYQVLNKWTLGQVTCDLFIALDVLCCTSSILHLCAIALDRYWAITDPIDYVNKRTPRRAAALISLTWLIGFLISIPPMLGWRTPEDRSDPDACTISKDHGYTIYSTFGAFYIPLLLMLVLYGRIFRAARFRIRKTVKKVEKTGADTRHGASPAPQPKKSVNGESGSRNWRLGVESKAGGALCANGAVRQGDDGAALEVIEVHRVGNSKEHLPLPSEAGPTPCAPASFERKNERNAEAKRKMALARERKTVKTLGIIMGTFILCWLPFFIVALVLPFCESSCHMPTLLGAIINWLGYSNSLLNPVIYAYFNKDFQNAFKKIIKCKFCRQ

human 5-HT2C receptor [4] = molecular target: T5, human 5-HT2C receptor; assay: h5-HT2C affinity, agonist radioligand [125I]DOI; format: binding
h5-HT2A = h5-HT2A (Homo sapiens, UniProt P28223); assay: Ca2+ mobilization assay; format: cell-based; details: for Emax: HEK293, read-out: h5-HT2A Emax, percentage of the maximum response to 5-HT
5-HT7 = 5-HT7 (Homo sapiens, UniProt P34969); assay: PDSP screening affinity 5-HT7; format: binding
Male C57BL/6J mice = assay: Mouse head twitch response; details: for max counts: HTR counts; for ED50: Mus musculus, sc, read-out: ED50 mg/kg (95% CI), mouse head twitch; for activity in the HTR assay (active / inactive): doses up to 30 mg/kg
5-ht1e = 5-ht1e (Homo sapiens, UniProt P28566); assay: PDSP screening affinity 5-ht1e; format: binding
r5-HT2A = r5-HT2A (Rattus norvegicus, UniProt P14842); assay: Ca2+ mobilization assay; format: cell-based; details: for EC50: r5-HT2A EC50, Ca2+ mobilization; for Emax: read-out: r5-HT2A Emax, percentage of the maximum response to 5-HT
[5] = h5-HT2B EC50, Ca2+ mobilization
[6] = r5-HT2C EC50, Ca2+ mobilization
[7] = r5-HT2C pEC50 ± SEM, Ca2+ mobilization

5-HT6, sequence (P50406 whole entry): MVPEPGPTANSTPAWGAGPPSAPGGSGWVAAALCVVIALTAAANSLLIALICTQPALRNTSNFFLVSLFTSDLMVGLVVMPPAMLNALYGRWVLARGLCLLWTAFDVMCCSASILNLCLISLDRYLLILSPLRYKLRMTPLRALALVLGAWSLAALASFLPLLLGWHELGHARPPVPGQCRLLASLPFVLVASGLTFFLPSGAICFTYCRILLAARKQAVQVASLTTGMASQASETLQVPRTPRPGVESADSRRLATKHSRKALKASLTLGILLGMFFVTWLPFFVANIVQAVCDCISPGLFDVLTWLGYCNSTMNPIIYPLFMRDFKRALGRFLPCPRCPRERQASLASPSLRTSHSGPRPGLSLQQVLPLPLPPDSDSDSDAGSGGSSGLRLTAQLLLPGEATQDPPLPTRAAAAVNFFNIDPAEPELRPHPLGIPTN
5-ht5a, sequence (P47898 whole entry): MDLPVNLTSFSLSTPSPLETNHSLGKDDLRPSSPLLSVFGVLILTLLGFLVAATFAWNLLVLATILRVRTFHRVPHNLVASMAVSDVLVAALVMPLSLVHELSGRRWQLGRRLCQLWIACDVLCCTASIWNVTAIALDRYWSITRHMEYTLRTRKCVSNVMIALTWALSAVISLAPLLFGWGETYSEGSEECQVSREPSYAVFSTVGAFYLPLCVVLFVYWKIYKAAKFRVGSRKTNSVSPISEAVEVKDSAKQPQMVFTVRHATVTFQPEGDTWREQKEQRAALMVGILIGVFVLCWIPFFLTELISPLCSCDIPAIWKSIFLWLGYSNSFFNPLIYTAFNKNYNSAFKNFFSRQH
5-HT1B, sequence (P28222 whole entry): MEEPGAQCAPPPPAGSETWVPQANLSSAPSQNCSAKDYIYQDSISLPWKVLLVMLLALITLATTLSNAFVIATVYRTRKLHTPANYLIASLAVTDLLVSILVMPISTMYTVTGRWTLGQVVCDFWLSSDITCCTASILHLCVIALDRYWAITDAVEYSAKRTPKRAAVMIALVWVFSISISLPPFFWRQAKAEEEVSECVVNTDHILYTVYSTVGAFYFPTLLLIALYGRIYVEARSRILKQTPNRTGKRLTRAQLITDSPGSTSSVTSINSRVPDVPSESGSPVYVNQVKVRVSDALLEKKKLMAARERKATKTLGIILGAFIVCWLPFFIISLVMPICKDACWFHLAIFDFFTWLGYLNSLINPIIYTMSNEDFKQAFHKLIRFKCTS
5-HT1D, sequence (P28221 whole entry): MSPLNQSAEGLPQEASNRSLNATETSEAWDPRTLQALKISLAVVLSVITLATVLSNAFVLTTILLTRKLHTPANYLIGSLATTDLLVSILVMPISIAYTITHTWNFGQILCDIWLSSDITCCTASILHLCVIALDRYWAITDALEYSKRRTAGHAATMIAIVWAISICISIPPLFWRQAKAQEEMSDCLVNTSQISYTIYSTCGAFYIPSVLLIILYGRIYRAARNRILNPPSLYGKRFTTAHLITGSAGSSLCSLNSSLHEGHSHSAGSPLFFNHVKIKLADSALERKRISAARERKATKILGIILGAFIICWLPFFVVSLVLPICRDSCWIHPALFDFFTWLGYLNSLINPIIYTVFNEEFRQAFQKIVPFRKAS
h5-HT2B, sequence (P41595 whole entry): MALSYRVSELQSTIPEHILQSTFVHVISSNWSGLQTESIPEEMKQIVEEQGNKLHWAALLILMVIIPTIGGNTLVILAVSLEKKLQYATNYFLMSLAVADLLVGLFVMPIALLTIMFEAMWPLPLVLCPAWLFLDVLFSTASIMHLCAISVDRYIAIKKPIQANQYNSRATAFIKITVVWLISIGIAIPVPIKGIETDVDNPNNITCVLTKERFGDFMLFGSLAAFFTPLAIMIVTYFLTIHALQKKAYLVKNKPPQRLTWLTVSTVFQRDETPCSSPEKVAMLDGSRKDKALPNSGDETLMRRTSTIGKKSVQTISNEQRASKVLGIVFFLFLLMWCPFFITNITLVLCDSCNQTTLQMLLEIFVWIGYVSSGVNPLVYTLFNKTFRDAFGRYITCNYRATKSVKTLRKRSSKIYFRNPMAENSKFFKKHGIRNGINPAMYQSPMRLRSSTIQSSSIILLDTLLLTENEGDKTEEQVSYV
5-HT2B, sequence (P41595 whole entry): as above
5-ht1e, sequence (P28566 whole entry): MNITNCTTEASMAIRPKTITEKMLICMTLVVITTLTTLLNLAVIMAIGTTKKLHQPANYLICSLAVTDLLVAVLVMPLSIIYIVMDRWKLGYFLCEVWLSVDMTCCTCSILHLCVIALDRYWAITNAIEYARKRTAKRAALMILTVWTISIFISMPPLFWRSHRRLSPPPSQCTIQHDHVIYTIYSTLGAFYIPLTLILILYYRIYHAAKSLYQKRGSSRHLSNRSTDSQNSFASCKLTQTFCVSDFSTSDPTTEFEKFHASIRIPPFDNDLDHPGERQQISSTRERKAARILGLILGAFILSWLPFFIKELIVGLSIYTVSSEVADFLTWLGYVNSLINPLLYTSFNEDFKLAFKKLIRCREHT
r5-HT2A, sequence (P14842 whole entry): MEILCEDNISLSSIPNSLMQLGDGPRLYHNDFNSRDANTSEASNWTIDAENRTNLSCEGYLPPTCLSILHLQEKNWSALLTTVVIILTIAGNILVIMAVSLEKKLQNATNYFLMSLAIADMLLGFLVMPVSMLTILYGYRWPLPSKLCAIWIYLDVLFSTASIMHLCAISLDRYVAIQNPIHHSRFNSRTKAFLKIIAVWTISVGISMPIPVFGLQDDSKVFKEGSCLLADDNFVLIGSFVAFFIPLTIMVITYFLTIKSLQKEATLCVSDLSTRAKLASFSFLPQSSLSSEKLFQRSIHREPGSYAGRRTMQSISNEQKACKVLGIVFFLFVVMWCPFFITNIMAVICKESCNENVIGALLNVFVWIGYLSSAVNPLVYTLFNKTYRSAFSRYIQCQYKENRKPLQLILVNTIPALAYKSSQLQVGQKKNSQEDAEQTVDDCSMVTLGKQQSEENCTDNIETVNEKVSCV
5-HT7, sequence (P34969 whole entry): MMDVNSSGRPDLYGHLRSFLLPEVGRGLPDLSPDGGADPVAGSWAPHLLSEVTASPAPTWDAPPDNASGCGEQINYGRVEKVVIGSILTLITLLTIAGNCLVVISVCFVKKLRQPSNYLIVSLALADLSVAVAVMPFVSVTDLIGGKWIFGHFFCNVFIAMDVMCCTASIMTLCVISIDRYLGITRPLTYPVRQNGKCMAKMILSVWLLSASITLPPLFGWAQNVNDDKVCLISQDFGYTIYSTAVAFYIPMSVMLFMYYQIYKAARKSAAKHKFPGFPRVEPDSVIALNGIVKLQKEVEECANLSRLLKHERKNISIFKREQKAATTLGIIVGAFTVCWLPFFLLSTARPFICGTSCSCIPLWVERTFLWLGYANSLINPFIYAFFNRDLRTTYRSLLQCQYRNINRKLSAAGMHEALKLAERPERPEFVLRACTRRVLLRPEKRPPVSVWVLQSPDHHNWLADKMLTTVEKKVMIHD
T2 sequence (P28223 whole entry): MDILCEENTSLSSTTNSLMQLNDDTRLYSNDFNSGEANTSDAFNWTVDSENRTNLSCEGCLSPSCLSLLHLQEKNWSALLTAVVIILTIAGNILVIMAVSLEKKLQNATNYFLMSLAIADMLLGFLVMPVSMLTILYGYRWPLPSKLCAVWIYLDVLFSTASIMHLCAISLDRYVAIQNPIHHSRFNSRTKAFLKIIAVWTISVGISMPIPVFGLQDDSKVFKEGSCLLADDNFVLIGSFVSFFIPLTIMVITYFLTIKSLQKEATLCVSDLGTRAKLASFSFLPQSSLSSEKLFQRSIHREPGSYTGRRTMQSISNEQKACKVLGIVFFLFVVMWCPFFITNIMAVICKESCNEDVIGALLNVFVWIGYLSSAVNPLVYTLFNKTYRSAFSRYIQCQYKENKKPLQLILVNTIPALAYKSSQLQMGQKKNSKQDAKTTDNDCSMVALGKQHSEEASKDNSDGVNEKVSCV
h5-HT2A, sequence (P28223 whole entry): as above

SMILES | Emax (h5-HT2B) [%] | Ki (5-HT3) [nM] | Ki (5-HT2A receptor [1]) [nM] | Emax (h5-HT2C) [%] | EC50 (h5-HT2C) [nM] | Ki (5-HT1B) [nM] | Ki (5-ht5a) [nM] | Ki (5-HT2A receptor [2]) [nM] | Emax (r5-HT2C) [%] | Ki (5-HT6) [nM] | Ki (5-HT1D) [nM] | Ki (human 5-HT2C receptor [3]) [nM] | Ki (5-HT1A; 5-HT1A affinity) [nM] | Ki (human 5-HT2C receptor [4]) [nM] | EC50 (h5-HT2A) [nM] | Emax (h5-HT2A) [%] | Ki (5-HT7; 5-HT7 affinity) [nM] | Ki (5-ht1e) [nM] | EC50 (r5-HT2A) [nM] | Emax (r5-HT2A) [%] | also measured
COc1cccc(CNCCc2c[nH]c3ccc(OC)cc23)c1 [Compound 5b, N-(3-Methoxybenzyl)-2-(5-methoxy-1H-indol-3-yl)ethan-1-amine] | ≤ 15 | > 10000 | 7.76 | 65 ± 5 | 178 | > 10000 | 1260 | 1.05 | 102 ± 2 | 25 | 334 | 38 | 335 | 5.89 | 6.2 | 70 ± 1 | 406 | > 10000 | 34 | 52.2 ± 0.9 | EC50 (h5-HT2B; [5]): 949 nM; EC50 (r5-HT2C; [6]): 168 nM; EC50 (r5-HT2C; [7]): 166 nM; Ki (5-HT2B; 5-HT2B affinity): 2.5 nM; Ki (5-HT1A; 5-HT1A pKi ± SEM): 331 nM; max counts (Male C57BL/6J mice; SC): 9.2; ED50 (Male C57BL/6J mice): 3.28 mg/kg; activity in the HTR assay (active / inactive) (Male C57BL/6J mice; SC): active; active doses (Male C57BL/6J mice; SC, mouse head twitch): 10 mg/kg; magnitude of peak effect × vehicle (Male C57BL/6J mice; SC, mouse head twitch): 3.7 × vehicle; maximally effective dose (Male C57BL/6J mice; SC, mouse head twitch): 10 mg/kg; HTR at 30 mg/kg (Male C57BL/6J mice; biphasic bell-shaped dose–response, 30 mg/kg SC): inactive
COc1ccc(CNCCc2c[nH]c3ccc(OC)cc23)cc1 [Compound 5c, N-(4-Methoxybenzyl)-2-(5-methoxy-1H-indol-3-yl)ethan-1-amine] | 81 ± 1 | > 10000 | 69.2 | 112 ± 5 | 75.1 | 1060 | 2390 | 10.5 | 102 ± 2 | 353 | 161 | 126 | 76 | 14.1 | 42 | 84.1 ± 1.3 | 37 | > 10000 | 190 | 75 ± 1.3 | EC50 (h5-HT2B; h5-HT2B pEC50 ± SEM, Ca2+ mobilization, NA = not active, Emax ≤ 15%): 22.9 nM; EC50 (r5-HT2C; [7]): 18.6 nM; Ki (5-HT2B; 5-HT2B affinity): 33 nM; Ki (5-HT2B; 5-HT2B pKi ± SEM): 32.4 nM; Ki (5-HT7; 5-HT7 pKi ± SEM): 36.3 nM; activity in the HTR assay (active / inactive) (Male C57BL/6J mice; SC): None of the phenethylamines or tryptamines with 4-substituted N-benzyl groups, 4b, 4e, 5c, or 5f, was active
COc1ccc2[nH]cc(CCNCc3ccccc3Br)c2c1 [Compound 5d, N-(2-Bromobenzyl)-2-(5-methoxy-1H-indol-3-yl)ethan-1-amine] | ≤ 15 | 6170 | 25.1 | 94 ± 5 | 439 | > 10000 | > 10000 | 2.34 | 104 ± 3 | 203 | 782 | 100 | 286 | 14.1 | 30 | 74.7 ± 1.5 | 1090 | > 10000 | 450 | 49.7 ± 1.2 | EC50 (h5-HT2B; [5]): 168 nM; selectivity h5-HT2A versus h5-HT2C, affinity at the [125I]-DOI-labeled receptors (5-HT2A receptor [2]; agonist-labeled receptors): 6 fold; EC50 (r5-HT2C; [6]): 898 nM; Ki (5-HT2B; 5-HT2B pKi ± SEM): 24 nM; activity in the HTR assay (active / inactive) (Male C57BL/6J mice; SC): failed to induce the HTR; also recorded: inactive
COc1ccc2[nH]cc(CCNCc3cccc(Cl)c3)c2c1 [Compound 5h, N-(3-Chlorobenzyl)-2-(5-methoxy-1H-indol-3-yl)ethan-1-amine] | ≤ 15 | > 10000 | 5.25 | 85 ± 6 | 316 | 4390 | 2310 | 1.05 | 105 ± 2 | 50 | 282 | 28.2 | 195 | 4.27 | 14 | 81.2 ± 1.3 | 281 | > 10000 | 83 | 70.1 ± 1 | EC50 (h5-HT2B; [5]): 50 nM; EC50 (r5-HT2C; [6]): 286 nM; Ki (5-HT2B; 5-HT2B affinity): 6.6 nM; Ki (5-HT2B; 5-HT2B pKi ± SEM): 6.92 nM; max counts (Male C57BL/6J mice; SC): 10.6; ED50 (Male C57BL/6J mice): 4.43 mg/kg; magnitude of peak effect × vehicle (Male C57BL/6J mice; SC, mouse head twitch): 8.0 × vehicle; maximally effective dose (Male C57BL/6J mice; SC, mouse head twitch): 30 mg/kg

— paper PMC4505863 (ACS Chemical Neuroscience, 2014)
